Measured values published in PMC12340957, “Interactions between Lipopolysaccharide and Peptide Bacteriocin BacSp222 Influence Their Biological Activities” (ACS Infectious Diseases, 2025).
Ends that are not written are not given here. * marks the point of attachment. For = O=C*

Assays:
[1] = literature statement; ref number not given; cited from earlier work
Source text: Regarding factors produced by bacteria, the canonical example of molecules interacting with LPS are polymyxins. […] Polymyxins are effective antibacterial drugs that interact with LPS in the outer and inner membranes of the cell wall, ultimately causing a lethal effect. […] Colicins, a family of protein bacteriocins produced by , typically must cross the bacterial outer membrane to display bactericidal activity. Most colicins use porins and high-affinity receptors to cross the outer membrane and kill the target. However, for colicin N, there is no such high-affinity receptor, and this bacteriocin targets LPS instead. The receptor-binding domain of ColN binds to LPS near the membrane surface, and this interaction is required for its bactericidal activity. || Nisin, a peptide lantibiotic produced by , is another example of a bacteriocin that could utilize LPS as a receptor. […] The interaction described above leads to membrane disruption. The level of membrane disruption is related to the origin of the bacteria and the type of LPS as its rough type is more susceptible to nisin.

TLR4 = conditions: literature statement; ref number not given; cited from earlier work
Source text: Proteins and peptides capable of recognizing and binding LPS as well as altering its biological activity are present in both higher organisms and bacteria. In higher organisms, these polypeptides are most often involved in the immune response. One of the best-known examples is LPS-binding protein (LBP). It is an acute-phase plasma protein of mammals that forms a complex with LPS, and this complex then binds to CD14 (cluster of differentiation 14). This event initiates a signaling pathway through TLR4/MD-2 and triggers the activation of immune response. , In the absence of TLR4, MD-2 can also i ... || Regarding factors produced by bacteria, the canonical example of molecules interacting with LPS are polymyxins. […] Polymyxins are effective antibacterial drugs that interact with LPS in the outer and inner membranes of the cell wall, ultimately causing a lethal effect.

[2] = target: the molecule itself; assay: dynamic light scattering; BacSp222 alone at 5, 50 and 500 μg/mL in PBS without Ca2+ and Mg2+, incubated 15 min at 37 °C, measured at 37 °C (Prometheus Panta); performed once

Molecule: Nisin
- interaction with LPS [1]: forms a molecular complex in model membranes and bacterial outer membrane extracts

Molecule: polymyxins [reference compound]
- interaction with LPS [1]: high affinity to LPS
- inhibition of LPS-induced TLR4 activation (TLR4): effectively block the biological effects of LPS, including TLR4 activation

B1: BacSp222 bacteriocin (peptide)
chain: For-MAGLLRFLLSKGRALYNWAKSHVGKVWEWLKSGATYEQIKEWIENALGWR
notes: molecular mass 5.922 kDa; also called peptide BacSp222
- binding result [2]: binds

B2: colicin N: protein bacteriocin whose receptor-binding domain binds to LPS (protein, UniProt P08083 1-387, looked up)
Colicin-N: MGSNGADNAHNNAFGGGKNPGIGNTSGAGSNGSASSNRGNSNGWSWSNKPHKNDGFHSDGSYHITFHGDNNSKPKPGGNSGNRGNNGDGASAKVGEITITPDNSKPGRYISSNPEYSLLAKLIDAESIKGTEVYTFHTRKGQYVKVTVPDSNIDKMRVDYVNWKGPKYNNKLVKRFVSQFLLFRKEEKEKNEKEALLKASELVSGMGDKLGEYLGVKYKNVAKEVANDIKNFHGRNIRSYNEAMASLNKVLANPKMKVNKSDKDAIVNAWKQVNAKDMANKIGNLGKAFKVADLAIKVEKIREKSIEGYNTGNWGPLLLEVESWIIGGVVAGVAISLFGAVLSFLPISGLAVTALGVIGIMTISYLSSFIDANRVSNINNIISSVIR
- interaction with LPS [1]: targets LPS
